Laboratory results published in patent publication US9663451B2, “Forms of co-crystals of agomelatine and p toluenesulphonic acid, a process for their preparation and pharmaceutical compositions containing them” (LES LABORATOIRES SERVIER, priority 2013, dated 2017).

Assays:
[1] = Stability of samples in incubators, determined by HPLC; format: physicochemical; details: 30 days
[2] = Solubility by HPLC (external standard method) compared with agomelatine of form II; format: physicochemical
Experimental: By means of an external standard method, the compounds of Examples 1 and 2 are tested by HPLC and compared with agomelatine of form II. The results are presented in Table 4 in the form of % increase in solubility relative to the solubility of agomelatine of form II: […]

Row | Compound | Stability ([1]; 25° C., 60% RH, open bottle) | Stability ([1]; 40° C., 75% RH, open bottle) | Stability ([1]; 50° C., closed bottle) | Stability ([1]; 70° C., closed bottle) | Solubility (increase versus agomelatine form II) in 0.1N HCl [2] | Solubility (increase versus agomelatine form II) in a buffer pH 6.8 [2] | Solubility (increase versus agomelatine form II) in water [2]
1 | COc1ccc2cccc(CCNC(C)=O)c2c1.Cc1ccc(S(=O)(=O)O)cc1.O [Compound of Example 1, Agomelatine/p-Toluenesulphonic Acid (1/1) Monohydrate Co-Crystal] | Stable | Stable | Stable | Stable | +50% | +49% | +41%
2 | COc1ccc2cccc(CCNC(C)=O)c2c1.Cc1ccc(S(=O)(=O)O)cc1 [Compound of Example 2, Agomelatine/p-Toluenesulphonic Acid (1/1) Co-Crystal] |  |  |  | Stable | +45% | +60% | +35%
